ChEMBL document CHEMBL6114991, “Design, synthesis, and biological evaluation of novel quinoline carboxylic acid based styryl/alkyne hybrid molecule as a potent anti-adipogenic and antidyslipidemic agent via activation of Wnt/β-catenin pathway” (Eur J Med Chem, 2025)
Calls of active or inactive are those of the source. The calls are words filed in the database; no cut-off is given here.

Assays:
[1] = tested on: 3T3-L1; assay: Anti-adipogenic activity in mouse 3T3-L1 cells assessed as change in lipid content at 10 uM measured at 3 to 5 days; assay type: functional, cell-based; conditions: time 3-5 day
[2] = tested on: 3T3-L1; assay: Anti-adipogenic activity in mouse 3T3-L1 cells assessed as reduction in lipid accumulation at 10 uM measured at upto 7 days; assay type: functional, cell-based; conditions: time <= 7.0 day
[3] = tested on: 3T3-L1; assay: Anti-adipogenic activity in mouse 3T3-L1 cells assessed as reduction in lipid accumulation at 10 uM in presence of FH535 by microscopic analysis; assay type: functional, cell-based
[4] = tested on: 3T3-L1; assay: Inhibition of adipogenesis in mouse 3T3-L1 cells assessed as downregulation of CEBPalpha expression at 10 uM measured at upto 3 days by immunoblotting analysis; assay type: functional, cell-based; conditions: time <= 3.0 day
[5] = tested on: 3T3-L1; assay: Inhibition of adipogenesis in mouse 3T3-L1 cells assessed as downregulation of CEBPalpha expression at 10 uM measured at upto 5 days by immunoblotting analysis; assay type: functional, cell-based; conditions: time <= 5.0 day
[6] = tested on: 3T3-L1; assay: Anti-adipogenic activity in mouse 3T3-L1 cells assessed as increase in GSK3beta mRNA expression at 10 uM incubated for 16 to 24 hrs; assay type: functional, cell-based; conditions: time 16-24 hrs
[7] = tested on: 3T3-L1; assay: Cytotoxicity against mouse 3T3-L1 cells assessed as cell viability at 10 uM incubated for 48 hrs by MTT assay; assay type: toxicity, cell-based; conditions: 3t3-l1, 48 h
[8] = tested on: 3T3-L1; assay: Anti-adipogenic activity in MDI-induced mouse 3T3-L1 cells assessed as suppression of adipogenesis at 0.3 uM by oil red O staining based analysis; assay type: functional, cell-based; conditions: time 72.0 hrs
[9] = Toxicity in Golden Syrian hamster assessed as reduction in LDL level in serum at 100 mg/kg, po administered for 7 days; assay type: organism-based, Mesocricetus auratus; conditions: in vivo, 168 h, time 7 day
[10] = tested on: 3T3-L1; assay: […] of Wnt/beta-catenin signalling in mouse 3T3-L1 cells assessed as increase in GSK3beta level at 10 uM by immunoblotting analysis; assay type: cell-based
[11] = Toxicity in Golden Syrian hamster assessed as reduction in TG level in serum at 100 mg/kg, po administered for 7 days; assay type: organism-based, Mesocricetus auratus; conditions: in vivo, 168 h, time 7 day
[12] = Toxicity in Golden Syrian hamster assessed as reduction in TC level in serum at 100 mg/kg, po administered for 7 days; assay type: organism-based, Mesocricetus auratus; conditions: in vivo, 168 h, time 7 day
[13] = tested on: 3T3-L1; assay: […] of Wnt/beta-catenin signalling in mouse 3T3-L1 cells assessed as increase in beta-catenin level at 10 uM by immunoblotting analysis; assay type: cell-based
[14] = tested on: Syrian golden hamster; assay: Anti-dyslipidemic activity in HFD-induced Golden Syrian hamster model assessed as decrease in PPARgamma level at 100 mg/kg, po administered for 7 days by Western blot analysis; assay type: functional, organism-based; conditions: Mesocricetus auratus, time 7.0 day
[15] = tested on: 3T3-L1; assay: Cytotoxicity against mouse 3T3-L1 cells assessed as cell viability upto 100 uM incubated for 48 hrs by MTT assay; assay type: toxicity, cell-based; conditions: 3t3-l1, 48 h

Structure (SMILES): Cc1ccc(/C=C/c2ccc(-c3cc(C(=O)O)c4cc(F)ccc4n3)cc2)cc1
- Activity [1]: Active
- Activity [2]: Active
- Activity [3]: Active
- inhibition [4]: Active
- inhibition [5]: Active
- Activity [6]: Active
- Activity [7]: Non-toxic
- Activity [8]: Active
- Activity [9]: Non-toxic
- inhibition [10]: Active
- Activity [11]: Non-toxic
- Activity [12]: Non-toxic
- inhibition [13]: Active
- Activity [14]: Active
- Activity [15]: Toxic
